These are literature values, as cited in PMC3280530, “Marine Compounds Selectively Induce Apoptosis in Female Reproductive Cancer Cells but Not in Primary-Derived Human Reproductive Granulosa Cells” (Marine Drugs, 2012).

The structures appear in SMILES notation.

This series has as its system caspase-3 and -7 in the Jurkat cell line. On the set-up: method as in PMID 17088067. The settings on record: after 5 h; cited from earlier work.

Consider `O=C1Nc2c(cc(Br)c(Br)c2Br)C1=O` [5,6,7-tribromoisatin], for which the “concentration activating caspase-3 and -7” value was 8 µM.
